Key:
[1] = biological target: MT1 Receptor (Homo sapiens, UniProt P48039); test: biochemical; type: binding; details: for Ki: read-out: MT1 Receptor Binding Ki
[2] = biological target: human Melatonin receptor 1 (MT1) (Homo sapiens, UniProt P48039); test: biochemical; details: for MT1 Receptor GTPgS Emax: efficacy, 100% effect = 3 nM 2-Iodomelatonin, 0% = vehicle; for EC50: hMT1/HEK293F membranes, agonist potency, read-out: MT1 Receptor GTPgS EC50; for Emax: read-out: MT1 Receptor GTPgS Emax
Procedure: Method II MT1 GTPγ^35S-SPA Assay Test Validation Standards
Test compounds were synthesized in house. […] 2 μl of diluted compounds were transferred to Optic-assay-plates.
(Freshly add protease inhibitor cocktail tables from Roche). […] The protein concentration of the membrane was determined. The membranes were aliquoted and stored at −80° C.
• MAX response (100% effect) was determined as the effect of 3 nM of 2-lodomelatonin. • MIN response (0% effect) was determined as the effect of vehicle control. Description of Experimental Procedure
The final concentration of GTPγ^35S was 200 pM.

[3] = biological target: T1, GABAA2 (human α2β3γ2 GABAA receptor) (Homo sapiens, UniProt P18507+P47869); test: Two-electrode voltage-clamp in Xenopus oocytes, potentiation of GABA EC10 current, GABAA2; type: cell-based; details: percentage potentiation of GABA EC10 current divided by that of diazepam
T1 construct: expressed in transfected cells; host or cells: Xenopus laevis oocytes injected with capped cRNA
T1 sequence (P47869 29-451): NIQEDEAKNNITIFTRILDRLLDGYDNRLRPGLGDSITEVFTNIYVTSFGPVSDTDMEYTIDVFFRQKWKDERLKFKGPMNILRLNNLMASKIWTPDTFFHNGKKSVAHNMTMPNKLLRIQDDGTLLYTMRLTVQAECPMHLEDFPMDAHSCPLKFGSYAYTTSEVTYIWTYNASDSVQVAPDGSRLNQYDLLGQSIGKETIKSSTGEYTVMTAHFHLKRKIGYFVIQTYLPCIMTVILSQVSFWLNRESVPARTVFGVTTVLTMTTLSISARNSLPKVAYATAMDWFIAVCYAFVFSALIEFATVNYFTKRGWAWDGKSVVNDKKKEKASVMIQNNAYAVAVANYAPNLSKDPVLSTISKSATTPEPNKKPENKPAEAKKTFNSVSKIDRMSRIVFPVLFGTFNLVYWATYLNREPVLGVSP
T1 sequence (P28472 26-473 partner): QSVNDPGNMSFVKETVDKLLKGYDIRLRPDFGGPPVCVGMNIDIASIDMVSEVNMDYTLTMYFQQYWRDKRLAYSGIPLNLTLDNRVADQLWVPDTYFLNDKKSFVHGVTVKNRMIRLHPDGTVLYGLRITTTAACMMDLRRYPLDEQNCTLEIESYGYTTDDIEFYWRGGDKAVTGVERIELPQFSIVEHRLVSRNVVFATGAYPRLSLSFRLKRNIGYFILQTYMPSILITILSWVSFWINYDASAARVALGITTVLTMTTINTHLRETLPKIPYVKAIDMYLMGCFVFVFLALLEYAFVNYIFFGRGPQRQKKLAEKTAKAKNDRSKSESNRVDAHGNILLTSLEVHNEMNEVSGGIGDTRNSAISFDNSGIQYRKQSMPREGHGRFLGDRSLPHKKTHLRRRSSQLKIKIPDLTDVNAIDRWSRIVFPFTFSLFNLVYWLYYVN
T1 sequence (P18507 40-475): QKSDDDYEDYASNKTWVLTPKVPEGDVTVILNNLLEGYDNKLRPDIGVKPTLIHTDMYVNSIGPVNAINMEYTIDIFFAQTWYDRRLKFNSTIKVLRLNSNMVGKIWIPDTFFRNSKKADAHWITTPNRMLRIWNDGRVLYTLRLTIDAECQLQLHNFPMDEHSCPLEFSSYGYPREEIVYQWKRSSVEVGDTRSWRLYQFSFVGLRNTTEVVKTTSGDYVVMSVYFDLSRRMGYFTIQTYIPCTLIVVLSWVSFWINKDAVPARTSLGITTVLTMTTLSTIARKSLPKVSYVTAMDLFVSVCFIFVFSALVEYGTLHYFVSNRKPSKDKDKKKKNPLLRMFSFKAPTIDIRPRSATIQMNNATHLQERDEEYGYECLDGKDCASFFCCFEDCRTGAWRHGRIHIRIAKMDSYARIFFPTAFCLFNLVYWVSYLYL

[4] = biological target: T2, GABAA2 receptors (α2, β3, γ2 receptor subunits) (Homo sapiens, UniProt P18507+P47869); test: biochemical; details: [3H]-Flunitrazepam ~2 nM, α2β3γ2 Sf9 membranes, 1 hr at 4° C.; read-out: GABAA2 Binding Ki
T2 construct: host or cells: Sf9 cells (membranes)
T2 sequence (P47869 29-451): as the sequence (P47869 29-451) above
T2 sequence (P28472 26-473 partner): as the sequence (P28472 26-473 partner) above
T2 sequence (P18507 40-475): as the sequence (P18507 40-475) above

[5] = biological target: T3, GABAA1 (human α1β2γ2 GABAA receptor) (Homo sapiens, UniProt P14867+P18507); test: Two-electrode voltage-clamp in Xenopus oocytes, potentiation of GABA EC10 current, GABAA1; type: cell-based; details: percentage potentiation of GABA EC10 current divided by that of diazepam
T3 construct: expressed in transfected cells; host or cells: Xenopus laevis oocytes injected with capped cRNA
T3 sequence (P14867 28-456): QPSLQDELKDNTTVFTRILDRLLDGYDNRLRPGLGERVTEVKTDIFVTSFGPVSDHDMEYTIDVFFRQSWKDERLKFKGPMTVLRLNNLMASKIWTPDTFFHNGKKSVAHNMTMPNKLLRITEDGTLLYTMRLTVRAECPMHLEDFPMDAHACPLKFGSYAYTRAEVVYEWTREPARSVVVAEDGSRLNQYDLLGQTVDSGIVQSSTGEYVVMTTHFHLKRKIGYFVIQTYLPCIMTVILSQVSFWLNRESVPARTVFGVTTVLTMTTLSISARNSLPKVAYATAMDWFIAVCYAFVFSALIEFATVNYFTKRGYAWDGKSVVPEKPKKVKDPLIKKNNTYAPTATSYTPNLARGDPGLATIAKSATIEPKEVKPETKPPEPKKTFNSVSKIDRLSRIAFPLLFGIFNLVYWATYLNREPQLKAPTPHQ
T3 sequence (P47870 25-512 partner limits assumed): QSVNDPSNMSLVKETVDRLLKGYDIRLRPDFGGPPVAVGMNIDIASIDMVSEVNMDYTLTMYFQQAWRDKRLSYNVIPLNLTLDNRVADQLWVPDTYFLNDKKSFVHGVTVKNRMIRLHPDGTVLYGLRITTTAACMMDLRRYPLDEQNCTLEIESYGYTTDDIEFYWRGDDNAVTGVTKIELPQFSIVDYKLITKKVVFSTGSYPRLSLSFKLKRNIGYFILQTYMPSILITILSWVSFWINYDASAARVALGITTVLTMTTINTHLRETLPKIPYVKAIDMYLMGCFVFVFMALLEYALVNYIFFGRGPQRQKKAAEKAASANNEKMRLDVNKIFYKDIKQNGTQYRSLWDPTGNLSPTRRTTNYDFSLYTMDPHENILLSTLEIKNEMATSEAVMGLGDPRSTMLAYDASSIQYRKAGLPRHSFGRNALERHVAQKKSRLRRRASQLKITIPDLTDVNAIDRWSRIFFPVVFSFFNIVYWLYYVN
T3 sequence (P18507 40-475): as the sequence (P18507 40-475) above

Sequence of MT1 Receptor (P48039 whole entry): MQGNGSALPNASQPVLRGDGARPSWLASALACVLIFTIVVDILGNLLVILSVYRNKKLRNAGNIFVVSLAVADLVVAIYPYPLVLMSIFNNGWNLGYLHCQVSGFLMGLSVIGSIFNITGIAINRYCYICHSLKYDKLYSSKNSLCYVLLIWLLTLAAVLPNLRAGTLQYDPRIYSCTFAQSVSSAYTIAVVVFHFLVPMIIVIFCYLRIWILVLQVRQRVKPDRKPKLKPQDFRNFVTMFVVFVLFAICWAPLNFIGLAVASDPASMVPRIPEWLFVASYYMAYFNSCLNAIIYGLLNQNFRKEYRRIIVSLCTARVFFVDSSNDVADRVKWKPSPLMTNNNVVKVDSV
Sequence of human Melatonin receptor 1 (MT1) (P48039 whole entry): as above

Row | Compound | Relative Potentiation for GABAA2 [3] | Ki [4] [µM] | Relative Potentiation for GABAA1 [5] | further results
1 | CCCNC(=O)c1nnc2c(-c3cc(OC)ccc3OC)cccc2c1N [drawing 417] | – | – | – | MT1 Receptor Binding % Inhibition at 1 μM ([1]; at 1 μM): 86%; Ki [1]: 0.06 µM; MT1 Receptor GTPgS Emax [2]: 100; EC50 [2]: 0.0375 µM
2 | CCCNC(=O)c1nnc2c(-c3cc(OC)ccc3OC)c(F)ccc2c1N | – | – | – | Ki [1]: 0.031 µM; EC50 [2]: 0.0236 µM; Emax [2]: 64%
3 | CCCNC(=O)c1nnc2c(-c3cc(C)ccc3OC)cccc2c1N | – | – | – | Emax [2]: 61%
4 | CNC(=O)c1nnc2c(-c3cc(C)ccc3OC)cccc2c1N | 0.43 | 0.0358 | 0.19 | –
5 | CCCNC(=O)c1nnc2c(-c3cc(C)ccc3C)c(Cl)ccc2c1N | 0.22 | 0.0112 | 0.24 | –
6 | CCCNC(=O)c1nnc2c(-c3ccc4ncccc4c3)cccc2c1N | 0.23 | 0.0064 | 0.1 | –
7 | CCCNC(=O)c1nnc2c(-c3cccc(F)c3OC)cccc2c1N | 0.11 | 0.0109 | 0.11 | –
8 | CCCNC(=O)c1nnc2c(-c3cc(C)ccc3C)c(F)ccc2c1N | 0.28 | 0.00131 | 0.21 | –
9 | CCCNC(=O)c1nnc2c(-c3cccc(C(=O)N4CCC4)c3)cccc2c1N | −0.0075 | 0.00344 | 0.19 | –
10 | CCCNC(=O)c1nnc2c(-c3ccc(F)cc3OC)cccc2c1N | 0.38 | 0.00434 | 0.12 | –
11 | CCCNC(=O)c1nnc2c(-c3ccc(OC)cc3F)c(F)ccc2c1N | 0.18 | 0.000613 | 0.053 | –
12 | CCCNC(=O)c1nnc2c(-c3cc(OC)ccc3OC)cccc2c1N [drawing 421] | – | – | – | inhibition at 1 µM ([1]; at 1 μM, read-out: MT1 Receptor Binding % Inhibition at 1 μM): 91%; Ki [1]: 0.036 µM; MT1 Receptor GTPgS Emax [2]: 61; EC50 [2]: 0.0267 µM
13 | CCCNC(=O)c1nnc2c(-c3cnccn3)cccc2c1N | −0.01 | 0.0204 | −0.067 | –
14 | CCCNC(=O)c1nnc2c(-c3cn[nH]c3)cccc2c1N | 0.1 | 0.00738 | −0.063 | –
15 | CCCNC(=O)c1nnc2c(-c3cnccc3OC)cccc2c1N | – | – | – | Emax [2]: 64%
16 | CCCNC(=O)c1nnc2c(-c3ccc(OC)c(F)c3)cccc2c1N | 0.19 | 0.0202 | 0.03 | –

Row | Compound | Relative Potentiation for GABAA2 [3] | Ki [4] [µM] | Relative Potentiation for GABAA1 [5] | further results
17 | CCCNC(=O)c1nnc2c(-c3cc(Cl)ccc3OC)cccc2c1N | 0.4 | 0.00111 | 0.38 | –
18 | CCCNC(=O)c1nnc2c(-c3cnc(OC)nc3)cccc2c1N | 0.11 | 0.0195 | −0.066 | –
19 | CCCNC(=O)c1nnc2c(-c3ccccc3)c(OC)ccc2c1N | 0.08 | 0.0914 | 0.12 | –
20 | CCCNC(=O)c1nnc2c(-c3cccc(OC)c3)cccc2c1N | 0.22 | 0.00434 | 0.13 | –
21 | CCCNC(=O)c1nnc2c(-c3cc(F)ccc3OC)cccc2c1N | 0.4 | 0.0105 | 0.026 | –
22 | CCCNC(=O)c1nnc2c(-c3ccc(F)cc3OC)c(F)ccc2c1N | 0.18 | 0.000565 | −0.028 | –
23 | Nc1c(C(=O)NCC2CC2)nnc2c(-c3ccccc3)cccc12 | 0.24 | 0.0186 | 0.11 | –
24 | CCCNC(=O)c1nnc2c(-c3ccc(N(C)C)cc3)cccc2c1N | 0.18 | 0.0266 | 0.07 | –
25 | CCCNC(=O)c1nnc2c(-c3ccc(OC)cc3OC)cccc2c1N | 0.15 | 0.0025 | 0.18 | –
26 | CCCNC(=O)c1nnc2c(-c3cccc(S(C)(=O)=O)c3)cccc2c1N | 0.26 | 0.0104 | 0.34 | –
27 | CCCNC(=O)c1nnc2c(-c3ccccn3)cccc2c1N | −0.032 | 0.0194 | 0.027 | –
28 | CCCNC(=O)c1nnc2c(-c3cc(F)cc(F)c3OC)c(F)ccc2c1N | 0.14 | 0.00578 | 0.1 | –
29 | CCCNC(=O)c1nnc2c(-c3ccccc3)c(Cl)ccc2c1N | 0.16 | 0.00582 | 0.25 | –
30 | CCCNC(=O)c1nnc2c(-c3ccc(OC)c(OC)c3OC)cccc2c1N | 0.33 | 0.00675 | 0.47 | –
31 | CCCNC(=O)c1nnc2c(-c3ccc(F)c(F)c3)cccc2c1N | 0.12 | 0.02 | −0.14 | –
32 | CCCNC(=O)c1nnc2c(-c3cnc(OC)nc3OC)cccc2c1N | – | – | – | Emax [2]: 70%

From patent publication US7425556B2 (priority 2005, dated 2008)
